Data reported in ChEMBL document CHEMBL5380862, “Unsymmetrical Phosphodiesters as GPR84 Antagonists with High Blood Exposure for the Treatment of Lung Inflammation” (J Med Chem, 2023).
The source made the active and inactive calls. The calls are words filed in the database; no cut-off is given here.

Columns and labels:
[1] = Drug distribution in mouse lung at 5 mg/kg, po administered as single dose and measured after 8 hrs by LC-MS analysis; assay type: ADME, organism-based; conditions: read-out: Drug uptake
[2] = Drug distribution in mouse plasma at 5 mg/kg, po administered as single dose and measured after 0.5 hrs by LC-MS analysis; assay type: ADME, organism-based
[3] = AUClast in ICR mouse at 2 mg/kg, iv administered as single dose; assay type: ADME, organism-based; set-up: dose 2 mg/kg, route iv; conditions: in vivo
[4] = biological target: Beta-2 adrenergic receptor (Homo sapiens) (UniProt P07550); assay: Antagonist activity at ARbeta2 (unknown origin) expressed in HEK293 cells co-expressing Galpha16 assessed as inhibition of Isoproterenol induced calcium response upto 100 uM incubated for 10 mins by calcium mobilization assay; assay type: functional, cell-based
[5] = Aqueous solubility of the compound incubated overnight by HPLC-DAD analysis; assay type: physicochemical; conditions: aqueous medium
[6] = Drug distribution in mouse liver at 5 mg/kg, po administered as single dose and measured after 0.5 hrs by LC-MS analysis; assay type: ADME, organism-based; conditions: read-out: Drug uptake
[7] = Drug distribution in mouse plasma at 5 mg/kg, po administered as single dose and measured after 2 hrs by LC-MS analysis; assay type: ADME, organism-based
[8] = biological target: Kappa-type opioid receptor (Homo sapiens) (UniProt P41145); assay: Antagonist activity at KOR (unknown origin) expressed in HEK293 cells co-expressing Galpha16 assessed as inhibition of U50488 induced calcium response upto 100 uM incubated for 10 mins by calcium mobilization assay; assay type: functional, cell-based
[9] = Drug distribution in mouse brain at 5 mg/kg, po administered as single dose and measured after 0.5 hrs by LC-MS analysis; assay type: ADME, organism-based; conditions: read-out: Drug uptake
[10] = biological target: T1, Free fatty acid receptor 3 (Homo sapiens) (UniProt O14843); assay: Antagonist activity at GPR41 (unknown origin) expressed in HEK293 cells co-expressing Galpha16 assessed as inhibition of sodium butyrate induced calcium response upto 100 uM incubated for 10 mins by calcium mobilization assay; assay type: functional, cell-based
T1 sequence (whole entry): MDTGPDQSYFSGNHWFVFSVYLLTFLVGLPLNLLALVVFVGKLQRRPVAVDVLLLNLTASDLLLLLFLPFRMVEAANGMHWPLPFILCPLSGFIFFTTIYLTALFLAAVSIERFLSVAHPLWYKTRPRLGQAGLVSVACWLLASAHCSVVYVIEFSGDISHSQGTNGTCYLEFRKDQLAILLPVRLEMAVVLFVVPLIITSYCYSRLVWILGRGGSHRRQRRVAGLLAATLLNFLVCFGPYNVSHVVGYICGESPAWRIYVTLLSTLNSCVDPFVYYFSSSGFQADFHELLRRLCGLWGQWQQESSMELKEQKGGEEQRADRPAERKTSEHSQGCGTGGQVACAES

Sequence of Kappa-type opioid receptor (Homo sapiens) (P41145 whole entry): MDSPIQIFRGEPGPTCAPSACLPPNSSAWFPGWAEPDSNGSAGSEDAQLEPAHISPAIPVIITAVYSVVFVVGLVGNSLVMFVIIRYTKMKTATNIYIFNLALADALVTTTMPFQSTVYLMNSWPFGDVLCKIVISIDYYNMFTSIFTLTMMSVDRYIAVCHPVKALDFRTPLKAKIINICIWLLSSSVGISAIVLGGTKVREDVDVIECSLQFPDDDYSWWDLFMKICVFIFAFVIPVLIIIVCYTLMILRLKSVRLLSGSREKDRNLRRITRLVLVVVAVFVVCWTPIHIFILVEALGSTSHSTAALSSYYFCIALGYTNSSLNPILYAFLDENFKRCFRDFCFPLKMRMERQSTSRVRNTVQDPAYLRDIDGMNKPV
Sequence of Beta-2 adrenergic receptor (Homo sapiens) (P07550 whole entry, looked up): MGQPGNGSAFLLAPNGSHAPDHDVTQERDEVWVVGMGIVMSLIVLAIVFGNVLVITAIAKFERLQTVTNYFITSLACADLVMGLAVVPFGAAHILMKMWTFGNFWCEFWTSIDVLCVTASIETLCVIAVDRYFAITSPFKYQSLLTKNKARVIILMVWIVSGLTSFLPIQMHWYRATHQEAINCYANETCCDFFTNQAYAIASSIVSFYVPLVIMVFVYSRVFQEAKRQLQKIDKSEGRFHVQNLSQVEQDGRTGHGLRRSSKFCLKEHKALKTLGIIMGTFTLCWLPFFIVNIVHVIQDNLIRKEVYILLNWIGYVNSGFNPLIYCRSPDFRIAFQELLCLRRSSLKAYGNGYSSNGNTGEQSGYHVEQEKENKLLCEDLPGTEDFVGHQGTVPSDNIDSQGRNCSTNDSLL

O=P([O-])(OC1=Cc2c(Cl)cccc2Sc2ccccc21)OC1=Cc2c(Cl)cccc2Sc2ccccc21.[Na+]
concentration at 8 h [1]: 26.1 ng/g | concentration at 0.5 h [2]: 135 ng/mL | AUC(0-t) [3]: 1680 ng·h/mL | inhibition [4]: inactive | solubility [5]: 891 µg/mL | concentration at 0.5 h [6]: 297 ng/g | concentration at 2 h [7]: 393 ng/mL | inhibition [8]: inactive | concentration at 0.5 h [9]: 6.8 ng/g | inhibition [10]: inactive
